In patent publication US10711000B2 (Fronthera U.S. Pharmaceuticals LLC, priority 2018, dated 2020) one finds IC50 data, which are given here for 18 compounds.

Molecules are shown by their SMILES. Read-outs that look alike come from different tables or passages of the source.

This experiment has as its target T1, Autotaxin (Homo sapiens, UniProt Q13822).
T1 construct: from tissue; host or cells: pooled human plasma
As to the kind of experiment: LPA formation in pooled human plasma (ex vivo autotaxin inhibition). Format: biochemical. Particulars: 2 hours incubation. The procedure:
Autotaxin is a plasma phosphodiesterase that converts lysophosphatidylcholine (LPC) into lysophosphatidic acid (LPA), therefore LPA formation was used to evaluate the potency of autotaxin inhibitors. The potency of compound was evaluated ex vivo in pooled human plasma.
Various concentrations of compound were incubated with plasma for 2 hours, and the LPA 18:2 and 20:4 concentration was measured by LC/MS/MS. To determine the LPA18:2 or 20:4 concentration in study plasma, a 10× calibration standard of LPA 18:2 or 20:4 were prepared by serial dilution in butyl alcohol: 20000, 10000, 5000, 2000, 1000, 500, 200, 100, 50, 20, and 10 ng/mL. 3 μL of calibration standard solution was added into 27.0 μL of blank plasma in 1.5-mL microcentrifuge tubes to generate 1× calibration standards. The 30.0 μL of standards or study plasma was added into 1.5-mL microcentrifuge tubes. 200 μL of butyl alcohol (containing 25.0 ng/mL LPA17:0 for internal control) was added into each 1.5-mL microcentrifuge tube containing study plasma or calibration standards. After vortexing for 1 minute and centrifuging at 10000 rpm for 10 min, 180 μL of supernatant was transferred into a 96-well plate and the LPA18:2 concentration in the plasma was quantitated using LC/MS/MS together with standards. Briefly, 8 μL of the solutions were injected for LC-MS/MS analysis using an ACQUITY UPLC BEH C18 column (2.1×50 mm, 1.7 μm) with mobile phase A [20 mM NH4OAC in water (0.1% FA)] and phase B [5 mM NH4OAC in water/0.2% FA in ACN=5:95]. Mass spectrometer parameters optimization for LPA18:2 were performed by Deprotonated molecular ion at m/z 433.2 ([M−H]^−) for LPA18:2, 457.2 for LPA20:4 and abundant product ion at m/z 152.8 for both LPA18:2 and LPA20:4 were obtained. Quantitative data were acquired in multiple reaction monitoring (MRM) negative electrospray ionization mode
The inhibition rate of LPA formation was determined by comparing the levels of LPA in treated and non-treated plasma. The data was plotted against the corresponding concentration of compound and the IC50 was calculated through non-linear regression fitting.

The mark [1] stands for this setting: LPA 18:2 by LC/MS/MS, read-out: LPA formation (18:2) (IC50).
Setting [2] is: LPA 20:4 by LC/MS/MS, read-out: LPA formation (20:4) (IC50).

By IC50 is commonly meant the concentration at which inhibition is half-maximal. On to `CCc1nn2ccc(N3CC4(CN(C(=O)N5CC(O)C5)C4)C3)cc2c1N(C)c1nc(-c2ccc(F)cc2)c(C#N)s1` [Example 11, 2-((2-ethyl-5-(6-(3-hydroxyazetidine-1-carbonyl)-2,6-diazaspiro[3.3]heptan-2-yl)pyrazolo[1,5-a]pyridin-3-yl)(methyl)amino)-4-(4-fluorophenyl)thiazole-5-carbonitrile], for which the half-inhibitory concentration (IC50) runs as follows: under setting [1], not above 100 nM; under setting [2], not above 100 nM.
Regarding `CCc1nn2ccc(N3CCC4(CC3)CN(C(=O)N3CC(O)C3)C4)cc2c1N(C)c1nc(-c2ccc(F)cc2)c(C#N)s1` [Example 12, 2-((2-ethyl-5-(2-(3-hydroxyazetidine-1-carbonyl)-2,7-diazaspiro[3.5]nonan-7-yl)pyrazolo[1,5-a]pyridin-3-yl)(methyl)amino)-4-(4-fluorophenyl)thiazole-5-carbonitrile], the concentration for half-maximal inhibition (IC50) reads like this: under setting [1], not above 100 nM; under setting [2], not above 100 nM.
On to `CCc1nn2ccc(N3CC4(CN(C(=O)N5CCN(C)CC5)C4)C3)cc2c1N(C)c1nc(-c2ccc(F)cc2)c(C#N)s1` [Example 14, 2-((2-ethyl-5-(6-(4-methylpiperazine-1-carbonyl)-2,6-diazaspiro[3.3]heptan-2-yl)pyrazolo[1,5-a]pyridin-3-yl)(methyl)amino)-4-(4-fluorophenyl)thiazole-5-carbonitrile], for which the IC50 was not above 100 nM under setting [1] and not above 100 nM under setting [2].
Regarding `CCc1nn2ccc(N3CC4(CCN(C(=O)N5CC(O)C5)C4)C3)cc2c1N(C)c1nc(-c2ccc(F)cc2)c(C#N)s1` [Example 15, 2-((2-ethyl-5-(6-(3-hydroxyazetidine-1-carbonyl)-2,6-diazaspiro[3.4]octan-2-yl)pyrazolo[1,5-a]pyridin-3-yl)(methyl)amino)-4-(4-fluorophenyl)thiazole-5-carbonitrile], the 50% inhibitory concentration (IC50) reads like this: under setting [1], not above 100 nM; under setting [2], not above 100 nM.
For `CCc1nn2ccc(N3CCC4(CN(C(=O)N5CC(O)C5)C4)C3)cc2c1N(C)c1nc(-c2ccc(F)cc2)c(C#N)s1` [Example 16, 2-((2-ethyl-5-(2-(3-hydroxyazetidine-1-carbonyl)-2,6-diazaspiro[3.4]octan-6-yl)pyrazolo[1,5-a]pyridin-3-yl)(methyl)amino)-4-(4-fluorophenyl)thiazole-5-carbonitrile], the IC50 runs as follows: under setting [1], not above 100 nM; under setting [2], not above 100 nM.
Regarding `CCc1nn2ccc(N3CCC4(CCN(C(=O)N5CC(O)C5)CC4)C3)cc2c1N(C)c1nc(-c2ccc(F)cc2)c(C#N)s1` [Example 17, 2-((2-ethyl-5-(8-(3-hydroxyazetidine-1-carbonyl)-2,8-diazaspiro[4.5]decan-2-yl)pyrazolo[1,5-a]pyridin-3-yl)(methyl)amino)-4-(4-fluorophenyl)thiazole-5-carbonitrile], the IC50 under setting [1] is not above 100 nM and the concentration for half-maximal inhibition (IC50) under setting [2] is not above 100 nM.
As for `CCc1nn2ccc(N3CCC4(CCN(C(=O)N5CC(O)C5)C4)CC3)cc2c1N(C)c1nc(-c2ccc(F)cc2)c(C#N)s1` [Example 18, 2-((2-ethyl-5-(2-(3-hydroxyazetidine-1-carbonyl)-2,8-diazaspiro[4.5]decan-8-yl)pyrazolo[1,5-a]pyridin-3-yl)(methyl)amino)-4-(4-fluorophenyl)thiazole-5-carbonitrile], the IC50 reads like this: under setting [1], not above 100 nM; under setting [2], not above 100 nM.
In the case of `[2H]c1cc(N2CCN(CC(=O)N3CC(O)C3)CC2)cc2c(N(C)c3nc(-c4ccc(F)cc4)c(C#N)s3)c(CC)nn12` [Example 19, 2-((2-ethyl-5-(4-(2-(3-hydroxyazetidin-1-yl)-2-oxoethyl)piperazin-1-yl)pyrazolo[1,5-a]pyridin-3-yl-7-d)(methyl)amino)-4-(4-fluorophenyl)thiazole-5-carbonitrile], the concentration for half-maximal inhibition (IC50) was not above 100 nM under setting [1] and not above 100 nM under setting [2].
Regarding `CCc1nn2ccc(N3CCC4(CCN(C(=O)N5CC(O)C5)C4)C3)cc2c1N(C)c1nc(-c2ccc(F)cc2)c(C#N)s1` (stereo not drawn) [Example 20, 2-((2-ethyl-5-(7-(3-hydroxyazetidine-1-carbonyl)-2,7-diazaspiro[4.4]nonan-2-yl)pyrazolo[1,5-a]pyridin-3-yl)(methyl)amino)-4-(4-fluorophenyl)thiazole-5-carbonitrile], the concentration for half-maximal inhibition (IC50) is, setting by setting: under setting [1], not above 100 nM; under setting [2], not above 100 nM.
With `CN(c1nc(-c2ccc(F)cc2)c(C#N)s1)c1c(C2CC2)nn2ccc(N3CCN(CC(=O)N4CC(O)C4)CC3)cc12` [Example 21, 2-((2-cyclopropyl-5-(4-(2-(3-hydroxyazetidin-1-yl)-2-oxoethyl)piperazin-1-yl)pyrazolo[1,5-a]pyridin-3-yl)(methyl)amino)-4-(4-fluorophenyl)thiazole-5-carbonitrile], the IC50 under setting [1] is not above 100 nM and the half-maximal inhibitory concentration (IC50) under setting [2] is not above 100 nM.
Turning to `CN(c1nc(-c2ccc(F)cc2)c(C#N)s1)c1c(C2CC2)nn2ccc(N3CC4(CN(C(=O)[C@H]5CCOC5)C4)C3)cc12` [Example 22, (S)-2-((2-cyclopropyl-5-(6-(tetrahydrofuran-3-carbonyl)-2,6-diazaspiro[3.3]heptan-2-yl)pyrazolo[1,5-a]pyridin-3-yl)(methyl)amino)-4-(4-fluorophenyl)thiazole-5-carbonitrile], the IC50 runs as follows: under setting [1], not above 100 nM; under setting [2], not above 100 nM.
As to `CCc1nn2c(C)cc(N3CCN(CC(=O)N4CC(O)C4)CC3)cc2c1N(C)c1nc(-c2ccc(F)cc2)c(C#N)s1` [Example 23, 2-((2-ethyl-5-(4-(2-(3-hydroxyazetidin-1-yl)-2-oxoethyl)piperazin-1-yl)-7-methylpyrazolo[1,5-a]pyridin-3-yl)(methyl)amino)-4-(4-fluorophenyl)thiazole-5-carbonitrile], the IC50 reads like this: under setting [1], 100 to 500 nM; under setting [2], 100 to 500 nM.
Turning to `CCc1nn2c(C)cc(N3CCN(CC(=O)N(C)C)CC3)cc2c1N(C)c1nc(-c2ccc(F)cc2)c(C#N)s1` [Example 24, 2-(4-(3-((5-cyano-4-(4-fluorophenyl)thiazol-2-yl)(methyl)amino)-2-ethyl-7-methylpyrazolo[1,5-a]pyridin-5-yl)piperazin-1-yl)-N,N-dimethylacetamide], the IC50 was 100 to 500 nM under setting [1] and not above 100 nM under setting [2].
The matching figures for `CCc1nn2c(C)cc(N3CCN(CC(=O)N4CC[C@@H](O)C4)CC3)cc2c1N(C)c1nc(-c2ccc(F)cc2)c(C#N)s1` [Example 25, (R)-2-((2-ethyl-5-(4-(2-(3-hydroxypyrrolidin-1-yl)-2-oxoethyl)piperazin-1-yl)-7-methylpyrazolo[1,5-a]pyridin-3-yl)(methyl)pamino)-4-(4-fluorophenyl)thiazole-5-carbonitrile]: not above 100 nM and not above 100 nM.
For `CCc1nn2c(C)cc(N3CCN(CC(=O)N4CC[C@H](O)C4)CC3)cc2c1N(C)c1nc(-c2ccc(F)cc2)c(C#N)s1` [Example 26, (S)-2-((2-ethyl-5-(4-(2-(3-hydroxypyrrolidin-1-yl)-2-oxoethyl)piperazin-1-yl)-7-methylpyrazolo[1,5-a]pyridin-3-yl)(methyl)amino)-4-(4-fluorophenyl)thiazole-5-carbonitrile], in that order: 100 to 500 nM and 100 to 500 nM.
With `CCc1nn2c(C)cc(N3CCN(CC(=O)N4CC(CO)C4)CC3)cc2c1N(C)c1nc(-c2ccc(F)cc2)c(C#N)s1` [Example 27, 2-((2-ethyl-5-(4-(2-(3-(hydroxymethyl)azetidin-1-yl)-2-oxoethyl)piperazin-1-yl)-7-methylpyrazolo[1,5-a]pyridin-3-yl)(methyl)amino)-4-(4-fluorophenyl)thiazole-5-carbonitrile], the IC50 runs as follows: under setting [1], not above 100 nM; under setting [2], not above 100 nM.
As for `CCc1nn2c(C)cc(N3CC4(CN(C(=O)N5CC(O)C5)C4)C3)cc2c1N(C)c1nc(-c2ccc(F)cc2)c(C#N)s1` [Example 28, 2-((2-ethyl-5-(6-(3-hydroxyazetidine-1-carbonyl)-2,6-diazaspiro[3.3]heptan-2-yl)-7-methylpyrazolo[1,5-a]pyridin-3-yl)(methyl)amino)-4-(4-fluorophenyl)thiazole-5-carbonitrile], the IC50 is not above 100 nM under setting [1] and not above 100 nM under setting [2].
On to `CCc1nn2c(C)cc(N3CC4(CN(C(=O)CO)C4)C3)cc2c1N(C)c1nc(-c2ccc(F)cc2)c(C#N)s1` [Example 29, 2-((2-ethyl-5-(6-(2-hydroxyacetyl)-2,6-diazaspiro[3.3]heptan-2-yl)-7-methylpyrazolo[1,5-a]pyridin-3-yl)(methyl)amino)-4-(4-fluorophenyl)thiazole-5-carbonitrile], for which the IC50 under setting [1] lay in the range of 100 to 500 nM and the IC50 under setting [2] was in the range of 500 to 1000 nM.
